In patent US20190185518A9, “WARHEAD-CONTAINING PEPTIDOMIMETIC MACROCYCLES AS MODULATORS OF BFL-1” (AILERON Therapeutics, Inc., priority 2017, published 2019):
Starred links: 1 amine or outer side, 2 acyl side, 3 side chain; linkers in the order of their positions; H or OH if unused. Positions of bridges follow the written chain, without caps; N, C: chain ends. Non-standard residues stand in square brackets, D forms with d. Residues, ends and D or L forms follow the SMILES beside them. Phe(4-F) = N[C@@H](Cc1ccc(F)cc1)C(=O)O; X1 = CC(C)CCC[C@H](N[*:1])C(=O)[*:2]; R8 = C=CCCCCCC[C@@](C)(N)C(=O)O; hLeu = CC(C)CC[C@H](N)C(=O)O; S5 = C=CCCC[C@](C)(N)C(=O)O; Ac6c = NC1(C(=O)O)CCCCC1; Ac5c = NC1(C(=O)O)CCCC1; Aib = CC(C)(N)C(=O)O

Experiments:
Bcl-xL = Bcl-xL (Homo sapiens, UniProt Q07817); test: Ki determination for Bcl-xL (BCL-2 family binding spectrum); details: read-out: Ki BCL-XL
Bcl-xL, sequence (Q07817 whole entry, species assumed): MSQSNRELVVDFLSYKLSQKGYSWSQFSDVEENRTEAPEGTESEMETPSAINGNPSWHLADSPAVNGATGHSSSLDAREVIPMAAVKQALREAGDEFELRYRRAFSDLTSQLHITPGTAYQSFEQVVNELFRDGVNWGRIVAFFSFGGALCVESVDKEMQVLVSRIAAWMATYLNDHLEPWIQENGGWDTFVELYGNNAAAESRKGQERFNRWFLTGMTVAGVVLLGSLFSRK
From the text: To assess the binding and affinity of compounds that antagonize the interaction between a peptide and an acceptor protein, a fluorescence polarization assay (FPA) utilizing a fluoresceinated peptidomimetic macrocycle derived from a peptidomimetic precursor sequence is used, for example. The FPA technique measures the molecular orientation and mobility using polarized light and fluorescent tracer. […] A compound that antagonizes the interaction between the fluoresceinated peptidomimetic macrocycle and an acceptor protein will be detected in a competitive binding FPA experiment.
For example, putative antagonist compounds (1 nM to 1 mM) and a fluoresceinated peptidomimetic macrocycle (25 nM) are incubated with the acceptor protein (50 nM) in binding buffer (140 mM NaCl, 50 mM Tris-HCL, pH 7.4) for 30 minutes at room temperature. Antagonist binding activity is measured, for example, by fluorescence polarization on a luminescence spectrophotometer (e.g. Perkin-Elmer LS50B). Kd values may be determined by nonlinear regression analysis using, for example, Graphpad Prism software (GraphPad Software, Inc., San Diego, Calif.).

Mcl-1 = Mcl-1 (Homo sapiens, UniProt Q07820); test: Ki determination for Mcl-1 (BCL-2 family binding spectrum); details: read-out: Ki MCL-1
Mcl-1, sequence (Q07820 whole entry, species assumed): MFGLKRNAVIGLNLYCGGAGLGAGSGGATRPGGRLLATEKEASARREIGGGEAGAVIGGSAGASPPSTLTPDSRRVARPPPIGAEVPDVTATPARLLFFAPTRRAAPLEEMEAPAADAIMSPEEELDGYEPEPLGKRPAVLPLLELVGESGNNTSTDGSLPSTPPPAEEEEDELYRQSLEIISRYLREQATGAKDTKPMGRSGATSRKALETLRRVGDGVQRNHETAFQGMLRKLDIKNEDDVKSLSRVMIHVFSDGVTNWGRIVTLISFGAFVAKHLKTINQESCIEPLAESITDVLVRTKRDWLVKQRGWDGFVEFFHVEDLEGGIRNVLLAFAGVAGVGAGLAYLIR
Method in brief: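 Competitive fluorescence polarization assay in which compounds displace a fluoresceinated peptidomimetic macrocycle tracer from Mcl-1. Affinity constants were obtained by nonlinear regression.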

SMILES | Ki (Bcl-xL) | Ki (Mcl-1)
CC[C@H](C)[C@H](NC(C)=O)C(=O)N[C@@H](Cc1c[nH]c2ccccc12)C(=O)N[C@H](C(=O)N[C@@H](C)C(=O)N[C@@H](C)C(=O)N[C@@H](C)C(=O)N[C@@H](CC(C)C)C(=O)N[C@@H](CCCNC(=N)N)C(=O)N[C@]1(C)CCCCCCC=CCCC[C@@](C)(C(=O)N[C@@H](Cc2ccc(O)cc2)C(=O)N[C@@H](Cc2ccc(O)cc2)C(=O)N[C@@H](C)C(N)=O)NC(=O)[C@H](CC(N)=O)NC(=O)[C@H](Cc2ccccc2)NC(=O)[C@H](C)NC(=O)[C@H](CC(=O)O)NC(=O)CNC(=O)[C@H]([C@@H](C)CC)NC1=O)[C@@H](C)CC [compound 1653] (Ac-IWIAAALR[R8]IGDAFN[S5]YYA-NH2; staple 9-16) | 25.6 nM | 
CC[C@H](C)[C@H](NC(C)=O)C(=O)N[C@@H](CC(=O)O)C(=O)N[C@H](C(=O)N[C@@H](C)C(=O)N[C@@H](C)C(=O)N[C@@H](C)C(=O)N[C@@H](CC(C)C)C(=O)N[C@@H](CCCNC(=N)N)C(=O)N[C@]1(C)CCCCCCC=CCCC[C@@](C)(C(=O)N[C@@H](Cc2ccc(O)cc2)C(=O)N[C@@H](Cc2ccc(O)cc2)C(=O)N[C@@H](C)C(N)=O)NC(=O)[C@H](CC(N)=O)NC(=O)[C@H](Cc2ccccc2)NC(=O)[C@H](C)NC(=O)[C@H](CC(=O)O)NC(=O)CNC(=O)[C@H]([C@@H](C)CC)NC1=O)[C@@H](C)CC [compound 1725] (Ac-IDIAAALR[R8]IGDAFN[S5]YYA-NH2; staple 9-16) | 36.3 nM | 
CC[C@H](C)[C@H](NC(C)=O)C(=O)N[C@@H](Cc1c[nH]c2ccccc12)C(=O)N[C@H](C(=O)N[C@@H](C)C(=O)N[C@@H](CCC(N)=O)C(=O)N[C@@H](C)C(=O)N[C@@H](CC(C)C)C(=O)N[C@@H](CCCNC(=N)N)C(=O)N[C@]1(C)CCCCCCC=CCCC[C@@](C)(C(=O)N[C@@H](Cc2ccc(O)cc2)C(=O)N[C@@H](Cc2ccc(F)cc2)C(=O)N[C@@H](C)C(N)=O)NC(=O)[C@H](CC(N)=O)NC(=O)[C@H](Cc2ccccc2)NC(=O)[C@H](C)NC(=O)[C@H](CC(=O)O)NC(=O)CNC(=O)[C@H](CCC(C)C)NC1=O)[C@@H](C)CC [compound 1777] (Ac-IWIAQALR[R8][hLeu]GDAFN[S5]Y[Phe(4-F)]A-NH2; staple 9-16) | 13 nM | 27 nM
CC[C@H](C)[C@H](NC(C)=O)C(=O)N[C@@H](Cc1c[nH]c2ccccc12)C(=O)NC1(C(=O)N[C@@H](C)C(=O)N[C@@H](CCC(N)=O)C(=O)N[C@@H](C)C(=O)N[C@@H](CC(C)C)C(=O)N[C@@H](CCCNC(=N)N)C(=O)N[C@]2(C)CCCCCCC=CCCC[C@@](C)(C(=O)N[C@@H](Cc3ccc(O)cc3)C(=O)N[C@@H](Cc3ccc(O)cc3)C(=O)N[C@@H](C)C(N)=O)NC(=O)[C@H](CC(N)=O)NC(=O)[C@H](Cc3ccccc3)NC(=O)[C@H](C)NC(=O)[C@H](CC(=O)O)NC(=O)CNC(=O)[C@H]([C@@H](C)CC)NC2=O)CCCCC1 [compound 1714] (Ac-IW[Ac6c]AQALR[R8]IGDAFN[S5]YYA-NH2; staple 9-16) | 7.7 nM | 
CC[C@H](C)[C@H](NC(C)=O)C(=O)N[C@@H](Cc1c[nH]c2ccccc12)C(=O)N[C@H](C(=O)N[C@@H](C)C(=O)N[C@@H](CCC(N)=O)C(=O)N[C@@H](C)C(=O)N[C@@H](CC(C)C)C(=O)N[C@@H](CCCNC(=N)N)C(=O)N[C@]1(C)CCCCCCC=CCCC[C@@](C)(C(=O)N[C@@H](Cc2ccc(O)cc2)C(=O)N[C@@H](Cc2ccc(O)cc2)C(=O)N[C@@H](C)C(N)=O)NC(=O)[C@H](C)NC(=O)[C@H](Cc2ccccc2)NC(=O)[C@H](CCC(=O)O)NC(=O)[C@H](CC(=O)O)NC(=O)CNC(=O)[C@H]([C@@H](C)CC)NC1=O)[C@@H](C)CC [compound 1643] (Ac-IWIAQALR[R8]IGDEFA[S5]YYA-NH2; staple 9-16) | 15.4 nM | 
CC[C@H](C)[C@H](NC(C)=O)C(=O)N[C@@H](Cc1c[nH]c2ccccc12)C(=O)N[C@H](C(=O)N[C@@H](C)C(=O)N[C@@H](CCC(N)=O)C(=O)N[C@@H](C)C(=O)N[C@@H](CC(C)C)C(=O)N[C@@H](CCCNC(=N)N)C(=O)N[C@]1(C)CCCCCCC=CCCC[C@@](C)(C(=O)N[C@@H](Cc2ccc(O)cc2)C(=O)N[C@@H](CC(C)C)C(=O)N[C@@H](C)C(N)=O)NC(=O)[C@H](CC(N)=O)NC(=O)[C@H](Cc2ccccc2)NC(=O)[C@H](C)NC(=O)[C@H](CC(=O)O)NC(=O)CNC(=O)[C@H]([C@@H](C)CC)NC1=O)[C@@H](C)CC [compound 1755] (Ac-IWIAQALR[R8]IGDAFN[S5]YLA-NH2; staple 9-16) | 9 nM | 
CC[C@H](C)[C@H](NC(C)=O)C(=O)N[C@@H](Cc1c[nH]c2ccccc12)C(=O)N[C@@H](Cc1ccccc1)C(=O)N[C@@H](C)C(=O)N[C@@H](CCC(N)=O)C(=O)N[C@@H](C)C(=O)N[C@@H](CC(C)C)C(=O)N[C@@H](CCCNC(=N)N)C(=O)N[C@]1(C)CCCCCCC=CCCC[C@@](C)(C(=O)N[C@@H](Cc2ccc(O)cc2)C(=O)N[C@@H](Cc2ccc(O)cc2)C(=O)N[C@@H](C)C(N)=O)NC(=O)[C@H](CC(N)=O)NC(=O)[C@H](Cc2ccccc2)NC(=O)[C@H](CCC(N)=O)NC(=O)[C@H](CC(=O)O)NC(=O)CNC(=O)[C@H]([C@@H](C)CC)NC1=O [compound 1672] (Ac-IWFAQALR[R8]IGDQFN[S5]YYA-NH2; staple 9-16) | 25.9 nM | 
CC[C@H](C)[C@H](NC(C)=O)C(=O)N[C@@H](Cc1c[nH]c2ccccc12)C(=O)NC1(C(=O)N[C@@H](C)C(=O)N[C@@H](CCC(N)=O)C(=O)N[C@@H](C)C(=O)N[C@@H](CC(C)C)C(=O)N[C@@H](CCCNC(=N)N)C(=O)N[C@]2(C)CCCCCCC=CCCC[C@@](C)(C(=O)N[C@@H](Cc3ccc(O)cc3)C(=O)N[C@@H](Cc3ccc(O)cc3)C(=O)N[C@@H](C)C(N)=O)NC(=O)[C@H](CC(N)=O)NC(=O)[C@H](Cc3ccccc3)NC(=O)[C@H](C)NC(=O)[C@H](CC(=O)O)NC(=O)CNC(=O)[C@H]([C@@H](C)CC)NC2=O)CCCC1 [compound 1715] (Ac-IW[Ac5c]AQALR[R8]IGDAFN[S5]YYA-NH2; staple 9-16) | 8.4 nM | 
CC[C@H](C)[C@H](NC(C)=O)C(=O)N[C@@H](Cc1c[nH]c2ccccc12)C(=O)N[C@H](C(=O)N[C@@H](C)C(=O)N[C@@H](CCC(N)=O)C(=O)N[C@@H](C)C(=O)N[C@@H](C)C(=O)N[C@@H](CCCNC(=N)N)C(=O)N[C@]1(C)CCCCCCC=CCCC[C@@](C)(C(=O)N[C@@H](Cc2ccc(O)cc2)C(=O)N[C@@H](Cc2ccc(O)cc2)C(=O)N[C@@H](C)C(N)=O)NC(=O)[C@H](CC(N)=O)NC(=O)[C@H](C)NC(=O)[C@H](C)NC(=O)[C@H](CC(=O)O)NC(=O)CNC(=O)[C@H]([C@@H](C)CC)NC1=O)[C@@H](C)CC [compound 1664] (Ac-IWIAQAAR[R8]IGDAAN[S5]YYA-NH2; staple 9-16) | 154 nM | 
CC[C@H](C)[C@H](NC(C)=O)C(=O)N[C@@H](Cc1c[nH]c2ccccc12)C(=O)N[C@H](C(=O)N[C@@H](C)C(=O)N[C@@H](CCC(N)=O)C(=O)N[C@@H](C)C(=O)N[C@@H](CC(C)C)C(=O)N[C@@H](CCCNC(=N)N)C(=O)N[C@]1(C)CCCCCCC=CCCC[C@@](C)(C(=O)N[C@@H](Cc2ccc(O)cc2)C(=O)N[C@@H](Cc2ccc(O)cc2)C(=O)N[C@@H](C)C(N)=O)NC(=O)[C@H](CC(N)=O)NC(=O)[C@H](Cc2ccccc2)NC(=O)[C@H](CCC(N)=O)NC(=O)[C@H](CC(=O)O)NC(=O)CNC(=O)[C@H](Cc2ccccc2)NC1=O)[C@@H](C)CC [compound 1670] (Ac-IWIAQALR[R8]FGDQFN[S5]YYA-NH2; staple 9-16) | 25.6 nM | 
CC[C@H](C)[C@H](NC(C)=O)C(=O)N[C@@H](Cc1c[nH]c2ccccc12)C(=O)N[C@H](C(=O)N[C@@H](C)C(=O)N[C@@H](CCC(N)=O)C(=O)N[C@@H](C)C(=O)N[C@@H](CC(C)C)C(=O)N[C@@H](CCCNC(=N)N)C(=O)N[C@]1(C)CCCCCCC=CCCC[C@@](C)(C(=O)N[C@@H](Cc2ccc(O)cc2)C(=O)N[C@@H](Cc2ccc(O)cc2)C(=O)N[C@@H](C)C(N)=O)NC(=O)[C@H](CC(N)=O)NC(=O)[C@H](Cc2ccccc2)NC(=O)[C@H](C)NC(=O)[C@H](CC(=O)O)NC(=O)CNC(=O)[C@H](CCCC(C)C)NC1=O)[C@@H](C)CC [compound 1702] (Ac-IWIAQALR[R8][X1]GDAFN[S5]YYA-NH2; staple 9-16) | 4 nM | 
CC[C@H](C)[C@H](NC(C)=O)C(=O)N[C@@H](Cc1c[nH]c2ccccc12)C(=O)N[C@H](C(=O)N[C@@H](C)C(=O)N[C@@H](C)C(=O)N[C@@H](C)C(=O)N[C@@H](CC(C)C)C(=O)N[C@@H](CCCNC(=N)N)C(=O)N[C@]1(C)CCCCCCC=CCCC[C@@](C)(C(=O)N[C@@H](Cc2ccc(O)cc2)C(=O)N[C@@H](Cc2ccc(O)cc2)C(=O)N[C@@H](C)C(N)=O)NC(=O)[C@H](CC(=O)O)NC(=O)[C@H](Cc2ccccc2)NC(=O)[C@H](C)NC(=O)[C@H](CC(=O)O)NC(=O)CNC(=O)[C@H]([C@@H](C)CC)NC1=O)[C@@H](C)CC [compound 1748] (Ac-IWIAAALR[R8]IGDAFD[S5]YYA-NH2; staple 9-16) | 25.9 nM | 
CC[C@H](C)[C@H](NC(C)=O)C(=O)N[C@@H](Cc1c[nH]c2ccccc12)C(=O)N[C@H](C(=O)N[C@@H](C)C(=O)N[C@@H](CCC(N)=O)C(=O)N[C@@H](C)C(=O)N[C@@H](CC(C)C)C(=O)N[C@@H](CCCNC(=N)N)C(=O)N[C@]1(C)CCCCCCC=CCCC[C@@](C)(C(=O)N[C@@H](Cc2ccc(O)cc2)C(=O)N[C@@H](Cc2ccc(O)cc2)C(=O)NC(C)(C)C(N)=O)NC(=O)[C@H](CC(N)=O)NC(=O)[C@H](Cc2ccccc2)NC(=O)[C@H](C)NC(=O)[C@H](CC(=O)O)NC(=O)CNC(=O)[C@H]([C@@H](C)CC)NC1=O)[C@@H](C)CC [compound 1770] (Ac-IWIAQALR[R8]IGDAFN[S5]YY[Aib]-NH2; staple 9-16) | > 1000 nM | 
